# Test results as given in patent US5061728A, “Use of 4-phenyl-1,2,3,4-tetrahydro-1-naphthalenamine derivatives in the treatment of inflammation and as immunosuppressants” (Pfizer Inc., priority 1990, dated 1991).
# Target: sigma receptors in brain tissue
# Experiment: In vitro binding: inhibition of (+)-[3H]3-PPP binding in rat whole brain membranes
# Settings: Table 1, racemates, 3 nM (+)-[3H]3-PPP
# Experimental: Affinity of disclosed compounds for sigma receptors in brain tissue was ascertained by the degree of inhibition of binding of the sigma site radioligand, (+)-[^3 H]3-(3-hydroxphenyl)-N-(1-propyl)piperidine ((+)-[^3 H]3-PPP) in competition experiments in vitro. These experiments were conducted by the method of Largent et al. Proc. Nat. Acad. Sec. […] Brains were removed from Sprague-DawleyCD male rats (Charles River Breeding Laboratories, Inc., Wilmington, Mass.; 200-300 g) following decapitation. Whole brain was homogenized in 25 volumes (v/w) of ice-cold 50 mM Tris (tris(hydroxymethyl)amino methane) hydrochloride pH 7.7 buffer using a Polytron PT-10 homogenizer. The pellet resulting from centrifugation of the homogenate at 45,000×g for 10 minutes at 0°-5° was washed twice by resuspension in the same volume of fresh buffer and recentrifugation. The final pellet was dispersed in 50 mM Tris hydrochloride pH 8.0 buffer (50 ml/g of original weight; "tissue preparation"). The incubation mixture in triplicate was comprised of 0.05 ml blank (10 μM pentazocine for nonspecific binding), test compound or vehicle; 0.20 ml (+)-[^3 H]3-PPP (110 Ci/mmol, NEN® DuPont; 3 nM final concentration) in 50 mM Tris hydrochloride pH 8.0 buffer; and 0.75 ml tissue preparation. The latter was added just prior to incubation of the mixture at 25° C. for 90 minutes. Afterwards, the mixture was diluted with 2.5 ml 10 mM Tris hydrochloride pH 7.7 buffer and filtered under vacuum through a Whatman GF/B glass-fiber filter (pretreated with 1% polyethyleneimine) in a Brandell cell harvester to recover the membranes. The filter was washed twice with the diluent buffer and placed in 10 ml Aquasol-2 (NEN® DuPont Co.) for determination of bound radioactivity in a liquid scintillation counter.
row,SMILES,IC50 [nM]
1,CN[C@H]1CC[C@@H](c2ccc(Cl)cc2)c2ccccc21 (relative stereo) [(±)-cis 4-Cl NHCH3],33
2,CN[C@H]1CC[C@H](c2ccc(C(F)(F)F)cc2)c2ccccc21 (relative stereo) [(±)-trans 4-CF3 NHCH3],39
3,CN[C@H]1CC[C@H](c2ccc(F)cc2)c2ccccc21 (relative stereo) [(±)-trans 4-F NHCH3],66
4,CN[C@H]1CC[C@@H](c2ccc(Br)cc2)c2ccccc21 (relative stereo) [(±)-cis 4-Br NHCH3],13
5,CN[C@H]1CC[C@H](c2ccc(Br)cc2)c2ccccc21 (relative stereo) [(±)-trans 4-Br NHCH3],85
6,CN[C@H]1CC[C@H](c2cccc(C(F)(F)F)c2)c2ccccc21 (relative stereo) [(±)-trans 3-CF3 NHCH3],16
7,"CN[C@H]1CC[C@@H](c2ccc(Cl)cc2Cl)c2ccccc21 (relative stereo) [(±)-cis 2,4-diCl NHCH3]",29
8,CN[C@H]1CC[C@H](c2ccc(Cl)cc2)c2ccccc21 (relative stereo) [(±)-trans 4-Cl NHCH3],75
9,CN[C@H]1CC[C@@H](c2ccc(C(F)(F)F)cc2)c2ccccc21 (relative stereo) [(±)-cis 4-CF3 NHCH3],5.9

# The remaining lines, values ahead:
row,IC50 [nM],SMILES
1,31,"CN[C@H]1CC[C@H](c2ccc(Cl)c(C(F)(F)F)c2)c2ccccc21 (relative stereo) [(±)-trans 3-CF3,4-Cl NHCH3]"
2,30,"CN(C)[C@H]1CC[C@H](c2ccc(Cl)c(Cl)c2)c2ccccc21 (relative stereo) [(±)-trans 3,4-diCl N(CH3)2]"
3,11,"CN[C@H]1CC[C@@H](c2ccc(Cl)c(C(F)(F)F)c2)c2ccccc21 (relative stereo) [(±)-cis 3-CF3,4-Cl NHCH3]"
4,44,"CN(C)[C@H]1CC[C@@H](c2ccc(Cl)c(Cl)c2)c2ccccc21 (relative stereo) [(±)-cis 3,4-diCl N(CH3)2]"

# Same assay, conditions: Table 2, enantiomers, 3 nM (+)-[3H]3-PPP
row,IC50 [nM],SMILES
1,17,"CN[C@H]1CC[C@@H](c2ccc(Cl)c(C(F)(F)F)c2)c2ccccc21 [(+)-1S, 4S 3-CF3,4-Cl NHCH3, Cis(1S) (4S)-N-methyl-4-(3-trifluoromethyl, 4-chloro-phenyl)-1,2,3,4-tetrahydro-1-naphthalenamine]"
2,8.7,"CN[C@H]1CC[C@@H](c2ccc(Cl)cc2)c2ccccc21 [(+)-1S, 4S 4-Cl NHCH3, Cis(1S) (4S)-N-methyl-4-(4-chlorophenyl)-1,2,3,4-tetrahydro-1-naphthalenamine]"
3,28,"CN(C)[C@H]1CC[C@@H](c2ccc(Cl)c(Cl)c2)c2ccccc21 [(+)-1S, 4S 3,4-diCl N(CH3)2, Cis(1S) (4S)-N,N-dimethyl-4-(3,4-dichlorophenyl)-1,2,3,4-tetrahydro-1-naphthalenamine]"
4,58,"N[C@H]1CC[C@@H](c2ccc(Cl)c(Cl)c2)c2ccccc21 [(+)-1S, 4S 3,4-diCl NH2, Cis(1S) (4S)-amino-4-(3,4-dichlorophenyl)-1,2,3,4-tetrahydro-1-naphthalenamine]"
